Measured values: patent US20230250106A1, “COMPOUNDS AND COMPOSITIONS FOR TREATING CONDITIONS ASSOCIATED WITH STING ACTIVITY” (IFM Due, Inc., priority 2020, published 2023)

system: STING pathway; experiment: STING reporter assay: luciferase reporter activity in THP1-Dual KO-IFNAR2 cells activated with 2'3'cGAMP; assay type: cell-based; settings: Homo sapiens, 2'3'cGAMP 15 μM, 24 h, read-out: hSTING EC50
Method: STING pathway activation by the compounds described herein was measured using THP1-Dual™ cells (KO-IFNAR2).
THP1-Dual™ KO-IFNAR2 Cells (obtained from invivogen) were maintained in RPMI, 10% FCS, 5 ml P/S, 2 mM L-glut, 10 mM Hepes, and 1 mM sodium pyruvate. Compounds were spotted in empty 384 well tissue culture plates (Greiner 781182) by Echo for a final concentration of 0.0017-100 μM. Cells were plated into the TC plates at 40 μL per well, 2×10E6 cells/mL. For activation with STING ligand, 2′3′cGAMP (MW 718.38, obtained from Invivogen), was prepared in Optimem media.
The following solutions were prepared for each 1×384 plate: • Solution A: 2 mL Optimem with one of the following stimuli: • 60 μL of 10 mM 2′3′cGAMP→150 μM stock • Solution B: 2 mL Optimem with 60 μL Lipofectamine 2000→Incubate 5 min at RT
2 mL of solution A and 2 ml Solution B was mixed and incubated for 20 min at room temperature (RT). 20 μL of transfection solution (A+B) was added on top of the plated cells, with a final 2′3′cGAMP concentration of 15 μM. The plates were then centrifuged immediately at 340 g for 1 minute, after which they were incubated at 37° C., 5% CO2,>98% humidity for 24 h. Luciferase reporter activity was then measured. EC50 values were calculated by using standard methods known in the art.
Luciferase reporter assay: 10 μL of supernatant from the assay was transferred to white 384-plate with flat bottom and squared wells. One pouch of QUANTI-Luc™ Plus was dissolved in 25 mL of water. 100 μL of QLC Stabilizer per 25 mL of QUANTI-Luc™ Plus solution was added. 50 μL of QUANTI-Luc™ Plus/QLC solution per well was then added. Luminescence was measured on a Platereader (e.g., Spectramax I3X (Molecular Devices GF3637001)).
Luciferase reporter activity was then measured. EC50 values were calculated by using standard methods known in the art.

| Compound | EC50 [µM] |
| --- | --- |
| O=C(Nc1c[nH]c2cc(F)c(F)cc12)c1ccc(OCCCC(F)(F)F)nc1 [Compound 138, N-(5,6-difluoro-1H-indol-3-yl)-6-(4,4,4-trifluorobutoxy)nicotinamide] | 0.2 to 1 |
| O=C(Nc1c[nH]c2cc(F)c(F)cc12)c1ccc(OCCCC(F)(F)F)cn1 [Compound 139, N-(5,6-difluoro-1H-indol-3-yl)-5-(4,4,4-trifluorobutoxy)picolinamide] | 0.2 to 1 |
| O=C(Nc1c[nH]c2cc(F)c(F)cc12)c1ccc(OCCCC(F)(F)F)c(F)c1 [Compound 142, N-(5,6-difluoro-1H-indol-3-yl)-3-fluoro-4-(4,4,4-trifluorobutoxy)benzamide] | 0.2 to 1 |
| COc1ccc2[nH]cc(NC(=O)c3ccc(OCCCC(F)(F)F)c(F)c3)c2n1 [Compound 143, 3-fluoro-N-(5-methoxy-1H-pyrrolo[3,2-b]pyridin-3-yl)-4-(4,4,4-trifluorobutoxy)benzamide] | 1 to 5 |
| O=C(Nc1c[nH]c2ncc(F)cc12)c1ccc(OCCCC(F)(F)F)c(F)c1 [Compound 144, 3-fluoro-N-(5-fluoro-1H-pyrrolo[2,3-b]pyridin-3-yl)-4-(4,4,4-trifluorobutoxy)benzamide] | 1 to 5 |
| N#Cc1ccc2[nH]cc(NC(=O)c3ccc(OCCCC(F)(F)F)c(F)c3)c2c1 [Compound 145, N-(5-cyano-1H-indol-3-yl)-3-fluoro-4-(4,4,4-trifluorobutoxy)benzamide] | 0.2 to 1 |
| O=C(Nc1c[nH]c2ccc(F)cc12)c1ccc(OCCCC(F)(F)F)c(F)c1 [Compound 146, 3-fluoro-N-(5-fluoro-1H-indol-3-yl)-4-(4,4,4-trifluorobutoxy)benzamide] | 0.04 to 0.2 |
| O=C(Nc1c[nH]c2cc(F)c(F)cc12)c1cnc(OCCCC(F)(F)F)cn1 [Compound 148, N-(5,6-difluoro-1H-indol-3-yl)-5-(4,4,4-trifluorobutoxy)pyrazine-2-carboxamide] | 0.2 to 1 |
| O=C(Nc1c[nH]c2cc(F)c(F)cc12)c1ccc(OC2CC(F)(F)C2)c(F)c1 [Compound 149, N-(5,6-difluoro-1H-indol-3-yl)-4-(3,3-difluorocyclobutoxy)-3-fluorobenzamide] | 0.2 to 1 |
| N#Cc1cc(C(=O)Nc2c[nH]c3cc(F)c(F)cc23)ccc1OCCCC(F)(F)F [Compound 150, 3-cyano-N-(5,6-difluoro-1H-indol-3-yl)-4-(4,4,4-trifluorobutoxy)benzamide] | 0.04 to 0.2 |
| O=C(Nc1c[nH]c2cc(F)c(F)cc12)c1ccc(OCCCC(F)(F)F)c(Cl)c1 [Compound 151, 3-chloro-N-(5,6-difluoro-1H-indol-3-yl)-4-(4,4,4-trifluorobutoxy)benzamide] | 0.2 to 1 |
| O=C(Nc1c[nH]c2ccc(Cl)cc12)c1ccc(OCCCC(F)(F)F)c(F)c1 [Compound 153, N-(5-chloro-1H-indol-3-yl)-3-fluoro-4-(4,4,4-trifluorobutoxy)benzamide] | 0.2 to 1 |
| Cc1cc(C(=O)Nc2c[nH]c3cc(F)c(F)cc23)ccc1OCCCC(F)(F)F [Compound 155, N-(5,6-difluoro-1H-indol-3-yl)-3-methyl-4-(4,4,4-trifluorobutoxy)benzamide] | 0.04 to 0.2 |
| COCc1ccc(-n2cc(-c3ccc4[nH]cc(NC(=O)c5ccc(OCCCC(F)(F)F)cc5)c4c3)cn2)cc1 [Compound 162, N-(5-(1-(4-(methoxymethyl)phenyl)-1H-pyrazol-4-yl)-1H-indol-3-yl)-4-(4,4,4-trifluorobutoxy)benzamide] | 0.04 to 0.2 |
| O=C(Nc1c[nH]c2cc(F)c(F)cc12)c1ccnc(NCCCC(F)(F)F)n1 [Compound 164, N-(5,6-difluoro-1H-indol-3-yl)-2-((4,4,4-trifluorobutyl)amino)pyrimidine-4-carboxamide] | 1 to 5 |
| Cc1cc(C(=O)Nc2c[nH]c3cc(F)c(F)cc23)ccc1OC1CC(F)(F)C1 [Compound 165, N-(5,6-difluoro-1H-indol-3-yl)-4-(3,3-difluorocyclobutoxy)-3-methylbenzamide] | 0.04 to 0.2 |
| O=C(Nc1c[nH]c2cc(F)c(F)cc12)c1ccc(OC2CCCC2)cc1 [Compound 168, 4-(cyclopentyloxy)-N-(5,6-difluoro-1H-indol-3-yl)benzamide] | 0.2 to 1 |
| O=C(Nc1c[nH]c2cc(F)c(F)cc12)c1ccc(Cl)c(OCCCC(F)(F)F)c1 [Compound 170, 4-chloro-N-(5,6-difluoro-1H-indol-3-yl)-3-(4,4,4-trifluorobutoxy)benzamide] | 0.2 to 1 |
| O=C(Nc1c[nH]c2cc(F)c(F)cc12)c1cccc(OCCCC(F)(F)F)c1 [Compound 171, N-(5,6-difluoro-1H-indol-3-yl)-3-(4,4,4-trifluorobutoxy)benzamide] | 0.2 to 1 |
| Cc1ccc(C(=O)Nc2c[nH]c3cc(F)c(F)cc23)cc1OCCCC(F)(F)F [Compound 172, N-(5,6-difluoro-1H-indol-3-yl)-4-methyl-3-(4,4,4-trifluorobutoxy)benzamide] | 0.2 to 1 |
| Cc1nc(C(=O)Nc2c[nH]c3cc(F)c(F)cc23)cnc1OCC(F)(F)F [Compound 173, N-(5,6-difluoro-1H-indol-3-yl)-6-methyl-5-(2,2,2-trifluoroethoxy)pyrazine-2-carboxamide] | 1 to 5 |

More lines, now with the values ahead:

| EC50 [µM] | Compound |
| --- | --- |
| 0.2 to 1 | O=C(Nc1c[nH]c2cc(F)c(F)cc12)c1ccc(OCc2ccccc2)cc1 [Compound 136, 4-(benzyloxy)-N-(5,6-difluoro-1H-indol-3-yl)benzamide] |
| 0.2 to 1 | O=C(Nc1c[nH]c2cc(F)c(F)cc12)c1cnc(N2CC(F)(F)C2)c(Cl)c1 [Compound 137, 5-chloro-N-(5,6-difluoro-1H-indol-3-yl)-6-(3,3-difluoroazetidin-1-yl)nicotinamide] |
| 0.2 to 1 | O=C(Nc1c[nH]c2cc(F)c(F)cc12)c1cnc(OCCC(F)(F)F)c(F)c1 [Compound 140, N-(5,6-difluoro-1H-indol-3-yl)-5-fluoro-6-(3,3,3-trifluoropropoxy)nicotinamide] |
| 0.2 to 1 | O=C(Nc1c[nH]c2cc(F)c(F)cc12)c1ccc(OCCC(F)(F)F)cc1 [Compound 141, N-(5,6-difluoro-1H-indol-3-yl)-4-(3,3,3-trifluoropropoxy)benzamide] |
| 0.2 to 1 | CCOc1ccc(C(=O)Nc2c[nH]c3cc(F)c(F)cc23)cc1 [Compound 147, N-(5,6-difluoro-1H-indol-3-yl)-4-ethoxybenzamide] |
| 0.2 to 1 | O=C(Nc1c[nH]c2cc(F)c(F)cc12)c1ccc(OCC(F)(F)F)cc1 [Compound 152, N-(5,6-difluoro-1H-indol-3-yl)-4-(2,2,2-trifluoroethoxy)benzamide] |
| 0.2 to 1 | O=C(Nc1c[nH]c2cc(F)c(F)cc12)c1cnc(N2CCC(F)(F)CC2)c(F)c1 [Compound 154, N-(5,6-difluoro-1H-indol-3-yl)-6-(4,4-difluoropiperidin-1-yl)-5-fluoronicotinamide] |
| 0.2 to 1 | O=C(Nc1c[nH]c2cc(F)c(F)cc12)c1cnc(N2CCC(F)(F)CC2)c(Cl)c1 [Compound 156, 5-chloro-N-(5,6-difluoro-1H-indol-3-yl)-6-(4,4-difluoropiperidin-1-yl)nicotinamide] |
| 0.2 to 1 | COCCOc1ccc(C(=O)Nc2c[nH]c3cc(F)c(F)cc23)cn1 [Compound 157, N-(5,6-difluoro-1H-indol-3-yl)-6-(2-methoxyethoxy)nicotinamide] |
| 0.04 to 0.2 | O=C(Nc1c[nH]c2cc(F)c(F)cc12)c1ccc(C2CCC(F)(F)CC2)cc1 [Compound 158, N-(5,6-difluoro-1H-indol-3-yl)-4-(4,4-difluorocyclohexyl)benzamide] |
| 0.04 to 0.2 | O=C(Nc1c[nH]c2cc(F)c(F)cc12)c1ccc(N2CCC(F)(F)CC2)nc1 [Compound 159, N-(5,6-difluoro-1H-indol-3-yl)-6-(4,4-difluoropiperidin-1-yl)nicotinamide] |
| 0.04 to 0.2 | O=C(Nc1c[nH]c2cc(F)c(F)cc12)c1ccc(OCCC(F)(F)F)c(F)c1 [Compound 160, N-(5,6-difluoro-1H-indol-3-yl)-3-fluoro-4-(3,3,3-trifluoropropoxy)benzamide] |
| 0.04 to 0.2 | COCCC1CCN(c2ncc(C(=O)Nc3c[nH]c4cc(F)c(F)cc34)cc2Cl)CC1 [Compound 163, 5-chloro-N-(5,6-difluoro-1H-indol-3-yl)-6-(4-(2-methoxyethyl)piperidin-1-yl)nicotinamide] |
| 0.2 to 1 | O=C(Nc1c[nH]c2cc(F)c(F)cc12)c1ccc(C2CCC(F)(F)CC2)c(Cl)c1 [Compound 166, 3-chloro-N-(5,6-difluoro-1H-indol-3-yl)-4-(4,4-difluorocyclohexyl)benzamide] |
| 0.2 to 1 | O=C(Nc1c[nH]c2cc(F)c(F)cc12)c1cccc(NCCCC(F)(F)F)c1 [Compound 169, N-(5,6-difluoro-1H-indol-3-yl)-3-((4,4,4-trifluorobutyl)amino)benzamide] |
| 0.2 to 1 | O=C(Nc1c[nH]c2cc(F)c(F)cc12)c1ccc(OCC(F)F)cc1 [Compound 174, N-(5,6-difluoro-1H-indol-3-yl)-4-(2,2-difluoroethoxy)benzamide] |
